Results published in PMC7544826 (Communications Biology, 2020).
“Also recorded” adds a separate entry of the source.

Tests used:
Notum [1] = biological target: T1, Notum (Homo sapiens, UniProt Q6P988, C330S); test: Notum activity assay with OPTS as substrate; assay type: biochemical; design: The human Notum enzyme core comprising amino acids S81–T451 with a C330S mutation; made in house; dialyzed conditioned medium used without purification; conditions: result in words
T1 sequence (Q6P988 81-451 C330S): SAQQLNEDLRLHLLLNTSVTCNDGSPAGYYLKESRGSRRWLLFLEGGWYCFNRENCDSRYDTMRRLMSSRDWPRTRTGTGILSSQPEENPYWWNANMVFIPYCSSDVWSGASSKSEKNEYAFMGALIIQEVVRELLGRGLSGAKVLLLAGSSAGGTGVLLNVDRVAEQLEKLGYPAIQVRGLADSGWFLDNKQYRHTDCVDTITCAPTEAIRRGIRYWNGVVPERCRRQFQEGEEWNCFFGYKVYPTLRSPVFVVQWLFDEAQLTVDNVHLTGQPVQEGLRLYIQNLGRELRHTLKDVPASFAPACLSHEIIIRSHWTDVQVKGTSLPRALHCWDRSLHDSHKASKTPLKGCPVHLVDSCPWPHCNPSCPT
Method: OPTS is a common lipase substrate with an octanoyl lipid linked to a fluorescent moiety. It is not a natural Notum substrate; however, it can be used to quantify the enzymatic activity of purified Notum protein[23],[25],[28]. […] The fluorescent lipase substrate OPTS was dissolved in water at a concentration of 20 µM. […] The inhibition curves were fitted with a one-site model with GraphPad Prism 8 software.

Notum [2] = biological target: T1, Notum; test: SPR equilibrium binding to biotinylated Notum on streptavidin chip; design: The human Notum enzyme core comprising amino acids S81–T451 with a C330S mutation; made in house; dialyzed conditioned medium used without purification; conditions: for SPR Response: Fig 2b
Method: The human Notum core sequence was cloned in a pHL-Avi3 vector[49] and co-transfected with the pDisplay_BirA-ER plasmid[50] into HEK293T cells with the media supplemented with 20 µM biotin. This procedure allows in vivo biotinylation to occur, and the dialyzed conditioned medium was directly used for SA sensor chip immobilization without protein purification. […] Approximately 2500 resonance units (RU) of the biotinylated Notum was coupled onto the chip. […] The response was plotted versus the concentration of the analytes and fitted by nonlinear regression to a one-site saturation binding model (GraphPad Prism 8).

Notum [3] = biological target: T1, Notum; test: Thermal shift assay (SYPRO Orange) of Notum; conditions: compound 500 µM; for Thermoflour melting curve fluorescence of Notum: Fig 2c
Method: Reference wells, i.e. solutions without compounds were used to compare the melting temperature (Tm). The experiments were performed in triplicate.

For `Cn1c(=O)c2[nH]cnc2n(C)c1=O` [theophylline, 1,3-dimethylxanthine], the “Notum inhibitory effect in OPTS enzyme assay” value (Notum [1]) was “not sufficient to inhibit Notum enzyme activity; also recorded: could not detect obvious Notum inhibitory effects”, the SPR Response (Notum [2]; theophylline conc. 8.138e-6 (unit not given)) was 6 and the SPR Response (Notum [2]; theophylline conc. 1.628e-5 (unit not given)) was 5.14. The SPR Response (Notum [2]; theophylline conc. 3.255e-5 (unit not given)) was 5.26, the SPR Response (Notum [2]; theophylline conc. 6.51e-5 (unit not given)) was 4.57 and the SPR Response (Notum [2]; theophylline conc. 0.0001302 (unit not given)) was 4.5. It also gave an SPR Response (Notum [2]; theophylline conc. 0.0002604 (unit not given)) of 4.84, an SPR Response (Notum [2]; theophylline conc. 0.0005208 (unit not given)) of 5.18 and an SPR Response (Notum [2]; theophylline conc. 0.001042 (unit not given)) of 6.64. For the same molecule, the SPR Response (Notum [2]; theophylline conc. 0.002083 (unit not given)) was 9.15, the SPR Response (Notum [2]; theophylline conc. 0.004167 (unit not given)) was 13.17 and the SPR Response (Notum [2]; theophylline conc. 0.008333 (unit not given)) was 19.59. For the same molecule, the SPR Response (Notum [2]; theophylline conc. 0.01667 (unit not given)) was 29.6, the “Binding to Notum (SPR response)” value (Notum [2]; result in words) was “weak binding; also recorded: very weak binding” and the “Thermoflour melting curve fluorescence of Notum” value (Notum [3]; Temperature 24.5) was 897.128. The “Thermoflour melting curve fluorescence of Notum” value (Notum [3]; Temperature 25.5) was 765.384, the “Thermoflour melting curve fluorescence of Notum” value (Notum [3]; Temperature 26.5) was 637.209 and the “Thermoflour melting curve fluorescence of Notum” value (Notum [3]; Temperature 27.5) was 518.408. For the same molecule, the “Thermoflour melting curve fluorescence of Notum” value (Notum [3]; Temperature 28.5) was 414.177, the “Thermoflour melting curve fluorescence of Notum” value (Notum [3]; Temperature 29.5) was 331.765 and the “Thermoflour melting curve fluorescence of Notum” value (Notum [3]; Temperature 30.5) was 250.774. For the same molecule, the “Thermoflour melting curve fluorescence of Notum” value (Notum [3]; Temperature 31.5) was 158.442, the “Thermoflour melting curve fluorescence of Notum” value (Notum [3]; Temperature 32.5) was 68.441 and the “Thermoflour melting curve fluorescence of Notum” value (Notum [3]; Temperature 33.5) was -19.5239. The “Thermoflour melting curve fluorescence of Notum” value (Notum [3]; Temperature 34.5) was -111.255, the “Thermoflour melting curve fluorescence of Notum” value (Notum [3]; Temperature 35.5) was -209.389 and the “Thermoflour melting curve fluorescence of Notum” value (Notum [3]; Temperature 36.5) was -312.731. The “Thermoflour melting curve fluorescence of Notum” value (Notum [3]; Temperature 37.5) was -413.402, the “Thermoflour melting curve fluorescence of Notum” value (Notum [3]; Temperature 38.5) was -500.183 and the “Thermoflour melting curve fluorescence of Notum” value (Notum [3]; Temperature 39.5) was -562.853. The “Thermoflour melting curve fluorescence of Notum” value (Notum [3]; Temperature 40.5) was -610.744, the “Thermoflour melting curve fluorescence of Notum” value (Notum [3]; Temperature 41.5) was -645.08 and the “Thermoflour melting curve fluorescence of Notum” value (Notum [3]; Temperature 42.5) was -650.416. For the same molecule, the “Thermoflour melting curve fluorescence of Notum” value (Notum [3]; Temperature 43.5) was -632.566, the “Thermoflour melting curve fluorescence of Notum” value (Notum [3]; Temperature 44.5) was -596.655 and the “Thermoflour melting curve fluorescence of Notum” value (Notum [3]; Temperature 45.5) was -543.168. For the same molecule, the “Thermoflour melting curve fluorescence of Notum” value (Notum [3]; Temperature 46.5) was -459.896, the “Thermoflour melting curve fluorescence of Notum” value (Notum [3]; Temperature 47.5) was -343.992 and the “Thermoflour melting curve fluorescence of Notum” value (Notum [3]; Temperature 48.5) was -208.285. The “Thermoflour melting curve fluorescence of Notum” value (Notum [3]; Temperature 49.5) was -58.8655, the “Thermoflour melting curve fluorescence of Notum” value (Notum [3]; Temperature 50.5) was 106.458 and the “Thermoflour melting curve fluorescence of Notum” value (Notum [3]; Temperature 51.5) was 280.009. For the same molecule, the “Thermoflour melting curve fluorescence of Notum” value (Notum [3]; Temperature 52.5) was 465.116, the “Thermoflour melting curve fluorescence of Notum” value (Notum [3]; Temperature 53.5) was 688.929 and the “Thermoflour melting curve fluorescence of Notum” value (Notum [3]; Temperature 54.5) was 944.753. The “Thermoflour melting curve fluorescence of Notum” value (Notum [3]; Temperature 55.5) was 1249.14, the “Thermoflour melting curve fluorescence of Notum” value (Notum [3]; Temperature 56.5) was 1627.12 and the “Thermoflour melting curve fluorescence of Notum” value (Notum [3]; Temperature 57.5) was 2089.03. The “Thermoflour melting curve fluorescence of Notum” value (Notum [3]; Temperature 58.5) was 2740.86, the “Thermoflour melting curve fluorescence of Notum” value (Notum [3]; Temperature 59.5) was 3654.17 and the “Thermoflour melting curve fluorescence of Notum” value (Notum [3]; Temperature 60.5) was 4930.23. For the same molecule, the “Thermoflour melting curve fluorescence of Notum” value (Notum [3]; Temperature 61.5) was 6643.29, the “Thermoflour melting curve fluorescence of Notum” value (Notum [3]; Temperature 62.5) was 8772.9 and the “Thermoflour melting curve fluorescence of Notum” value (Notum [3]; Temperature 63.5) was 11088.9. For the same molecule, the “Thermoflour melting curve fluorescence of Notum” value (Notum [3]; Temperature 64.5) was 13331.1, the “Thermoflour melting curve fluorescence of Notum” value (Notum [3]; Temperature 65.5) was 15330 and the “Thermoflour melting curve fluorescence of Notum” value (Notum [3]; Temperature 66.5) was 16941.4. The “Thermoflour melting curve fluorescence of Notum” value (Notum [3]; Temperature 67.5) was 18219.9, the “Thermoflour melting curve fluorescence of Notum” value (Notum [3]; Temperature 68.5) was 19263.9 and the “Thermoflour melting curve fluorescence of Notum” value (Notum [3]; Temperature 69.5) was 20098.6. The “Thermoflour melting curve fluorescence of Notum” value (Notum [3]; Temperature 70.5) was 20739.3, the “Thermoflour melting curve fluorescence of Notum” value (Notum [3]; Temperature 71.5) was 21242.8 and the “Thermoflour melting curve fluorescence of Notum” value (Notum [3]; Temperature 72.5) was 21635.7. The “Thermoflour melting curve fluorescence of Notum” value (Notum [3]; Temperature 73.5) was 21967.5, the “Thermoflour melting curve fluorescence of Notum” value (Notum [3]; Temperature 74.5) was 22276.2 and the “Thermoflour melting curve fluorescence of Notum” value (Notum [3]; Temperature 75.5) was 22539.4. The “Thermoflour melting curve fluorescence of Notum” value (Notum [3]; Temperature 76.5) was 22758.8, the “Thermoflour melting curve fluorescence of Notum” value (Notum [3]; Temperature 77.5) was 22973.7 and the “Thermoflour melting curve fluorescence of Notum” value (Notum [3]; Temperature 78.5) was 23167.2. The “Thermoflour melting curve fluorescence of Notum” value (Notum [3]; Temperature 79.5) was 23367.9, the “Thermoflour melting curve fluorescence of Notum” value (Notum [3]; Temperature 80.5) was 23544.1 and the “Thermoflour melting curve fluorescence of Notum” value (Notum [3]; Temperature 81.5) was 23667.9. For the same molecule, the “Thermoflour melting curve fluorescence of Notum” value (Notum [3]; Temperature 82.5) was 23791, the “Thermoflour melting curve fluorescence of Notum” value (Notum [3]; Temperature 83.5) was 23926.1 and the “Thermoflour melting curve fluorescence of Notum” value (Notum [3]; Temperature 84.5) was 24091.4. For the same molecule, the “Thermoflour melting curve fluorescence of Notum” value (Notum [3]; Temperature 85.5) was 24243.5, the “Thermoflour melting curve fluorescence of Notum” value (Notum [3]; Temperature 86.5) was 24338.2 and the “Thermoflour melting curve fluorescence of Notum” value (Notum [3]; Temperature 87.5) was 24414.9. The “Thermoflour melting curve fluorescence of Notum” value (Notum [3]; Temperature 88.5) was 24481.1, the “Thermoflour melting curve fluorescence of Notum” value (Notum [3]; Temperature 89.5) was 24523 and the “Thermoflour melting curve fluorescence of Notum” value (Notum [3]; Temperature 90.5) was 24559.4. The “Thermoflour melting curve fluorescence of Notum” value (Notum [3]; Temperature 91.5) was 24580.6, the “Thermoflour melting curve fluorescence of Notum” value (Notum [3]; Temperature 92.5) was 24587.9 and the “Thermoflour melting curve fluorescence of Notum” value (Notum [3]; Temperature 93.5) was 24608.3. The “Thermoflour melting curve fluorescence of Notum” value (Notum [3]; Temperature 94.5) was 24615, the “Thermoflour melting curve fluorescence of Notum” value (Notum [3]; Temperature 95.5) was 24596.6 and the “Thermoflour melting curve fluorescence of Notum” value (Notum [3]; Temperature 96.5) was 24576.1. The “Thermoflour melting curve fluorescence of Notum” value (Notum [3]; Temperature 97.5) was 24555, the “Effect on Tm of Notum” value (Notum [3]) was “very weak binding to Notum” and the “∆Tm of Notum” value (Notum [3]; versus Notum without compounds) was “about 1 °C”. For the same molecule, the “Melting temperature (Tm) of Notum” value (Notum [3]; Notum without compounds Tm 63.6 °C) was 64.5 °C.
